Data on ten compounds can be found in US20130331415A1, “COMPOSITIONS COMPRISING WNT INHIBITORS FOR TREATING CANCER” (priority 2010, published 2013).

Data set [1] deals with OPM-2 myeloma cells. In words: Cell viability by DiOC6 staining, flow cytometry: OPM-2. The conditions noted are these: for viability of OPM-2 cells, single drug or combination: three days, EA or CIC 30 μM, thalidomide 40 μM, lenalidomide 12 μM. In kind it is cell-based, human. On the procedure:
(§1) The lymphoma cell lines LAM-53, SU-DHL-4, Daudi and Raji, as well as the myeloma cell lines OPM-2, RPMI-8226 and U-266 (all obtained from DSMZ, Collection of Microorganisms and Cell Culture, Braunschweig, Germany) were cultured in RPMI-1640 Medium consisting of 10% heat-inactivated fetal calf serum (FCS, Invitrogen, Karlsruhe, Germany), 2.5% 1 M HEPES, and 1× penicillin/streptomycin (all from PAA Laboratories GmbH, Cölbe, Germany). Cells were cultured at a density of 3.3×10^5 cells ml^−1 andincubated at 37° C. with 5% CO2 and 95% humidity.
(§2) After addition of 5 μl PI-solution (100 μg/ml) the cells were analyzed by FACS.
(§3) Experiments were performed as reported recently.

Data set [2] relates to RPMI 8226 myeloma cells. In words: Cell viability by DiOC6 staining, flow cytometry: RPMI 8226. In kind it is cell-based, human. The settings on record: three days; EA or CIC 30 μM; thalidomide 20 μM; lenalidomide 80 μM. On the procedure:
as §1, §2, §3

Data set [3] has as its system PBMC. In words: Cell viability by DiOC6 staining, flow cytometry: PBMC of healthy individuals. In kind it is cell-based, human. On the procedure:
as §2
PBMCs were isolated from blood of healthy donors by Ficoll-Hypaque density gradient centrifugation. Blood from buffy coats was mixed 1:2 with PBS/1% BSA (both PAA, Cölbe, Germany) and used for a ficoll gradient (LymphoPrep, PAA, Cölbe, Germany). After the centrifugation at 800 g for 30 minutes, the leukocyte layer was removed and transferred to new tubes.
as §3
(In general: In flow cytometry, cells or beads pass a laser one at a time.)

The subject of data set [4] is PBL. In words: Cell viability by DiOC6 staining, flow cytometry: PBL of healthy individuals. In kind it is cell-based, human. The protocol: as §2, §3
The test system of data set [5] is lymphoma cell lines (OCI-Ly8 LAM53, SU-DHL-4 and Raji). In words: Viability of lymphoma cell lines in vitro. In kind it is cell-based, human. On the procedure: as §2, §3
In data set [6] the test system is U266 myeloma cells. In words: Cell viability by DiOC6 staining, flow cytometry: U266. In kind it is cell-based, human. The conditions noted are these: three days; EA or CIC 30 μM; thalidomide 160 μM. The protocol:
as §1, §2, §3

Data set [7] deals with primary myeloma cells. In words: Viability of primary myeloma cells from bone marrow of patients. In kind it is cell-based, human. The settings on record: three days; preliminary data. On the procedure:
Bone marrow samples from patients with myeloma were taken after informed consent, single cell suspensions generated and cells ficolled. Cells were incubated with or without EA for three days and measured for viability.
Results represent data from two separate experiments. Data are shown as mean.
Bone marrow samples from patients with myeloma were taken after informed consent, single cell suspensions generated and cells ficolled. Cells were incubated with or without CIC for three days and measured for viability.
Bone marrow samples from patients with myeloma were taken after informed consent, single cell suspensions generated and cells ficolled. Cells were incubated with or without GF for three days and measured for viability.

Data set [8] concerns MPC11 myeloma cells. In kind it is in vivo. The settings on record: for animals in which solid tumor nodules formed: gavage 450 μg per animal daily; for overall survival compared to control group: oral 450 μg/day, 750 μg lenalidomide/day in combination. On the procedure:
Mice were treated orally with 450 μg/day EA and 750 μg lenalidomide/day, respectively. Overall survival and tumor growth were measured. Tumor volume was calculated as follows: volume=length×width^2×0.52.
Mice were treated orally with 450 μg/day CIC and 750 μg lenalidomide/day, respectively. Overall survival and tumor growth were measured. Tumor volume was calculated as follows: volume=length×width^2×0.52.
Mice were treated orally with 450 μg/day PO. Overall survival and tumor growth were measured. Tumor volume was calculated as follows: volume=length×width^2×0.52.

Data set [9] deals with Wnt/beta catenin signaling. The conditions noted are these: 960 compounds screened; cited from earlier work.
Data set [10] concerns primary CLL cells. The settings on record: cited from earlier work.
The conditions of data set [11]: cited from earlier work.
For data set [12], the system named is Raji lymphoma cells. In words: Cell viability by DiOC6 staining, flow cytometry: Raji. In kind it is cell-based, human. The settings on record: for viability of Raji cells, single drug or combination: EA or CIC 30 μM, data not shown. The protocol:
as §1, §2, §3

For data set [13], the system named is OCI-Ly8 LAM53 lymphoma cells. In words: Cell viability by DiOC6 staining, flow cytometry: OCI-Ly8 LAM53. In kind it is cell-based. The conditions noted are these: Homo sapiens, EA 30 μM, after 72 h, read-out: relative viability, LAM-53. On the procedure:
as §1, §2, §3

Data set [14] concerns SU-DHL-4 lymphoma cells. In words: Cell viability by DiOC6 staining, flow cytometry: SU-DHL-4. In kind it is cell-based. The conditions noted are these: Homo sapiens, EA 30 μM, after 72 h, read-out: relative viability, SU-DHL-4. The protocol:
as §1, §2, §3

Data set [15] relates to Daudi lymphoma cells. In words: Cell viability by DiOC6 staining, flow cytometry: Daudi. In kind it is cell-based, human. The settings on record: EA or CIC 30 μM; data not shown. The protocol: as §1, §2
The lymphoma cell lines LAM-53, SU-DHL-4, Daudi and Raji, as well as the myeloma cell lines OPM-2, RPMI-8226 and U-266 (all obtained from DSMZ, Collection of Microorganisms and Cell Culture, Braunschweig, Germany) were cultured in RPMI-1640 Medium consisting of 10% heat-inactivated fetal calf serum (FCS, Invitrogen, Karlsruhe, Germany), 2.5% 1 M HEPES, and 1× penicillin/streptomycin (all from PAA Laboratories GmbH, Cölbe, Germany). Cells were cultured at a density of 3.3×10^5 cells ml^−1 and incubated at 37° C. with 5% CO2 and 95% humidity.
as §3

In data set [16] the test system is myeloma cells (OPM-2, U266 and RPMI 8226). In words: Viability of myeloma cell lines, mean IC50 over OPM-2, U266 and RPMI 8226. In kind it is cell-based, human. The protocol:
A mean IC50 value in myeloma cells was determined using the mean of the IC50 results determined in OPM-2, U266 and RPMI 8226 cells.

In the case of `Nc1cccc2c1CN(C1CCC(=O)NC1=O)C2=O` (racemic) [lenalidomide, (RS)-3-(4-amino-1-oxo-3H-isoindol-2-yl)piperidine-2,6-dione], in [1], the “viability of OPM-2 cells, single drug or combination” value (from here on “viability of OPM-2 cells”) is on record as “significant decrease in viability”. Besides, the “viability of RPMI-8226 cells, single drug or combination” value in data set [2] is “significant decrease in viability”. Moreover, the “effect on normal PBMC” value in data set [3] is on record as “marginal”. Further, the “effect on normal PBL” value in data set [4] is recorded as “marginal”. In addition, the “viability of lymphoma cell lines in vitro” value in data set [5] was “no effect”.
`O=C1CCC(N2C(=O)c3ccccc3C2=O)C(=O)N1` (racemic) [thalidomide, (RS)-2-(2,6-dioxopiperidin-3-yl)-1H-isoindole-1,3(2H)-dione]: the “viability of OPM-2 cells” value in [1] was “significant decrease in viability”. Further, the “viability of U-266 cells, single drug or combination” value in data set [6] was “significant decrease in viability”. For the same compound, the “viability of RPMI-8226 cells, single drug or combination” value in data set [2] is given as “significant decrease in viability”. In [3], the “effect on normal PBMC” value is reported as “no effect”. Moreover, in data set [4], the “effect on normal PBL” value is given as “no effect”. In data set [5], the “viability of lymphoma cell lines in vitro” value was “no effect”.
`Cc1cc(C2CCCCC2)n(O)c(=O)c1` [CIC, ciclopirox olamine]: in [3], the “effect on normal PBMC” value is “marginal”. Further, the “effect on normal PBL” value in data set [4] is “marginal”. Further, the “viability of lymphoma cell lines in vitro” value in data set [5] is reported as “significantly (p<0.05) decreased the viability”. Also, the “growth of primary myeloma cells from bone marrow of patients” value (“growth of primary myeloma cells” for short) in [7] is on record as “inhibits the growth”. Also, the “tumor growth compared to control mice” value in [8] (oral 450 μg/day CIC, 750 μg lenalidomide/day) is given as “significantly reduced”. In addition, the “result of TOPflash reporter screen” value in data set [9] is given as “Wnt/beta catenin inhibitors”. Also, the “cell death in primary CLL cells” value in data set [10] is listed as “selectively induced cell death”.
As for `Cc1cc(C2CCCCC2)n(O)c(=O)c1` [Ciclopirox, 6-cyclohexyl-1-hydroxy-4-methyl-1,2-dihydropyridin-2-one], the solubility in methanol result in data set [11] is on record as “soluble”.
For the compound `C=C(CC)C(=O)c1ccc(OCC(=O)O)c(Cl)c1Cl` [EA, 2-[2,3-dichloro-4-(2-methylidenebutanoyl)phenoxy]acetic acid], the viability (in general, a per cent measure of how many cells are alive, often set against a control) at 30 µM was 78.9% in [12] (Homo sapiens, Raji, EA 30 μM, after 72 h, read-out: relative viability, Raji); 91% in [13]; 97.6% in [14]. Further, the “viability of lymphoma cell lines in vitro” value in data set [5] is reported as “significantly (p<0.05) decreased the viability”. Moreover, the “growth of primary myeloma cells” value in [7] is “inhibits the growth”. Further, the “tumor growth compared to mice treated with lenalidomide alone” value in data set [8] (oral 450 μg/day EA, 750 μg lenalidomide/day, p<0.001) is on record as “significantly reduced”. In [9], the “result of TOPflash reporter screen” value is given as “Wnt/beta catenin inhibitors”. In [10], the “cell death in primary CLL cells” value is recorded as “selectively induced cell death”. Moreover, the solubility in water result in data set [11] was “slightly solube”. The “solubility in most organic solvents” value in [11] (e.g. alcohols, chloroform, and benzene) is “soluble”.
`CC(C)C[C@H](NC(=O)[C@H](Cc1ccccc1)NC(=O)c1cnccn1)B(O)O` [bortezomib]: the “viability of OPM-2 cells” value in data set [1] is “significant decrease in viability”.
Turning to `COc1cccc2c1C(=O)c1c(O)c3c(c(O)c1C2=O)C[C@@](O)(C(=O)CO)C[C@@H]3O[C@H]1C[C@H](N)[C@H](O)[C@H](C)O1` [doxorubicin], the “viability of Raji cells, single drug or combination” value in data set [12] is “significant decrease in viability”. The “viability of Daudi cells, single drug or combination” value in data set [15] is “significant decrease in viability”.
For `COC1=CC(=O)C[C@@H](C)[C@]12Oc1c(Cl)c(OC)cc(OC)c1C2=O` [griseofulvin, (2S,6′R)-7-chloro-2′,4,6-trimethoxy-6′-methyl-3H,4′H-spiro[1-benzofuran-2,1′-cyclohex[2]ene]-3,4′-dione], the “viability of myeloma cell lines in vitro” value in data set [16] is listed as “significantly decreased the viability”. In addition, in data set [5], the “viability of lymphoma cell lines in vitro” value is listed as “significantly (p<0.05) decreased the viability”. Moreover, the “growth of primary myeloma cells” value in data set [7] is reported as “inhibits the growth”. In [8], the “animals in which solid tumor nodules formed” value is recorded as 5 of 6 and the “overall survival compared to control group” value was “significantly (p<0.05) longer”.
With `Cc1cc(CC(C)CC(C)(C)C)n(O)c(=O)c1` (stereo not shown) [piroctone olamine], in data set [1] (0.1 uM, three days (FIG. 12)), the “mode of cytotoxic activity” value was “induction of apoptosis”. Also, the “effect on normal PBL” value in data set [4] is “marginal”. In addition, the “viability of myeloma cell lines in vitro” value in [16] is “significantly decreased the viability”. The “viability of lymphoma cell lines in vitro” value in data set [5] is on record as “significantly (p<0.05) decreased the viability”. In addition, in [7], the “growth of primary myeloma cells” value is listed as “inhibits the growth”. In [8], the “animals in which solid tumor nodules formed” value is given as 5 of 6 and the “overall survival compared to control group” value is on record as “significantly (p<0.05) longer”.
Turning to rituximab, in [12], the “viability of Raji cells, single drug or combination” value is listed as “significantly decreased”. Besides, in [15], the “viability of Daudi cells, single drug or combination” value is listed as “significantly decreased”.
